Tests used:
[1] = test system: anti-OVA serum antibody; assay: OVA immunization with bisphosphonates (Example 15), serum antibody titer; type: in vivo, mice; conditions: 100 μg, intramuscular, 14 days
Experimental: During the immunization, the antigen we used was ovalbumin (OVA). Mice were c57bl/6 female mice at the age of 8 weeks. OVA was formulated at a concentration of 1 mg/ml and bisphosphonate concentration was 1 mg/ml. OVA and bisphosphonates were mixed at a ratio of 1:1 at the time of immunization. Mice were injected intramuscularly with […]. 100 μg of OVA and 100 μg of bisphosphonate per mouse. 14 days after immunization, 100 μl of orbital blood was taken from each mouse.
The whole blood which had been obtained was placed in a 4° C. freezer overnight. The next day, the whole blood at 4° C. was centrifuged at a speed of 6000 rpm at a temperature of 4° C. for 5 minutes. After the centrifugation, the upper serum was carefully taken out and centrifuged again at a speed of 6000 rpm at a temperature of 4° C. for 5 minutes. The upper serum was taken again. Serum was frozen and stored at-20° C. and thawed when tested.
1. Coating: antigen OVA was diluted to a protein content of 2 μg/ml with 0.05M pH 9.6 carbonate coating buffer. Each reaction well of a polystyrene plate was coated with 50 μl of the solution overnight at 4° C. or 2 h at 37° C. […]
7. On an ELISA detector, the OD value was read at 490 nm. Titers of serum antibody were calculated. Serum dilutions were calculated as titers of serum antibody based on an OD value greater than or equal to 1.5 times of the reading of the negative control well.

[2] = test system: Vγ9Vδ2 T cells; assay: Expansion of Vγ9Vδ2 T cells from PBMCs; type: cell-based, human; conditions: 4 μM bisphosphonate, 200 U/mL rIL-2, day 12
Experimental: Human peripheral blood mononuclear cells (PBMCs) were prepared from healthy volunteers by Ficoll-Hypaque density gradient centrifugation. […] Cells were harvested on day 12 and stained with FITC-anti-CD3 (Miltenyi Biotec) and PE-anti-[…] (Miltenyi Biotec) monoclonal antibodies. Flow cytometry was used for detection. Prism 5.0 was used to analyze the data.

[3] = test system: anti-OVA IgM and IgG antibodies; assay: Combined adjuvant effect of FPPS inhibitor and TLR agonist, OVA titer; type: in vivo, mice
Experimental: Two compounds, TH-Z93 and Imiquimod, were formulated at a concentration of 4 mg/ml, and OVA antigen at a concentration of 10 mg/ml. When used alone, 5 μl of TH-Z93 or imiquimod was added as an adjuvant and mixed with 10 μl of antigen and 5 μl of PBS. When two adjuvants were used in combination, each of the adjuvants were added in an amount of 5 μl and mixed with 10 μl of antigen, and the total volumes were 20 μl. The mice used are of C57B/6 strain. An equal volume of PBS without any adjuvant was used for mice in the control group. The mice was injected at the soles of the right feet. On Day 7 and Day 14 after immunization, blood was taken from the mice's orbits, and 100 μl was taken for each mouse. The obtained blood was left at 4° C. overnight, and then the serum was separated. The titers of anti-OVA IgM and IgG antibodies in the serum were determined.

[4] = target: HsGGPPS (humanized geranylgeranyl pyrophosphate synthase) (Homo sapiens (Human), UniProt O95749); assay: HsGGPPS enzyme inhibition test; type: biochemical
Experimental: The inhibitory activities of compounds TH-Z144 and TH-Z145 on GGPPS (geranylgeranyl pyrophosphate synthase) were tested by referring to the expression and purification method for HsGGPPS (humanized geranylgeranyl pyrophosphate synthase) in the reference (Szabo, C. M., et al., Inhibition of Geranylgeranyl Diphosphate Synthase by Bisphosphonates and Diphosphates: A Potential Route to New Bone Antiresorption and Antiparasitic Agents. Journal of Medicinal Chemistry, 2002. 45 (11): p. 2185-2196.) and the method for testing enzyme activity in the reference (Zhang, Y., et al., Lipophilic Bisphosphonates as Dual Farnesyl/Geranylgeranyl Diphosphate Synthase Inhibitors: An X-ray and NMR Investigation. Journal of the American Chemical Society, 2009. 131 (14): p. 5153-5162.) The data of the activity test were as follows: […]

HsGGPPS (humanized geranylgeranyl pyrophosphate synthase), sequence (O95749 whole entry, looked up): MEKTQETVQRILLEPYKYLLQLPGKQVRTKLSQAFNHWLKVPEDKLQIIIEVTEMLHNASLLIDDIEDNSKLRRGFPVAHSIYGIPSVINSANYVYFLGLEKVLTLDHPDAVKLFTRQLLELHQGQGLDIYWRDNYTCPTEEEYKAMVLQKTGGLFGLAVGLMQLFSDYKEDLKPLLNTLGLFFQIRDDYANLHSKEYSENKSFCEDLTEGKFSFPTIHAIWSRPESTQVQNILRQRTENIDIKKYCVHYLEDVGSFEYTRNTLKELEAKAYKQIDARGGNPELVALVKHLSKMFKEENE

## CCCCCCOc1ccc2c(c1)ncn2CC(O)(P(=O)(O)O)P(=O)(O)O [TH-Z80]
[1]
  antibody titers vs conventional bisphosphonates: higher titers of antibodies than conventional bisphosphonates
[2]
  amplification effect on Vγ9Vδ2 T cells: best amplification effect on Vγ9Vδ2 T cells

## CCCCCCCCOc1ccc2c(c1)ncn2CC(O)(P(=O)(O)O)P(=O)(O)O [TH-Z81]
[1]
  adjuvant effect by carbon chain length of the side chain: strongest effect as an adjuvant

## CCCCCCOc1ccnc(NC(P(=O)(O)O)P(=O)(O)O)c1 [TH-Z93, (((4-(hexyloxy)pyridin-2-yl)amino)methylene)bisphosphonic acid]
[3]; soles of right feet
  antibody titers vs PBS control, adjuvant used alone: significant high titers
[3]; used alone
  antibody titers vs imiquimod alone: significantly superior to those of mice treated with imiquimod alone

## (2-(3-(octyloxy)phenyl)ethane-1,1-diyl)bisphosphonic acid [TH-Z145]
[4]
  IC50 (inhibition of GGPPS): effectively inhibit the activity of GGPPS
[4]; read-out: IC50 (inhibition of GGPPS)
  IC50: 660 nM

Source: US20250367283A1, “MEVALONATE PATHWAY INHIBITOR AS HIGHLY-EFFICIENT VACCINE ADJUVANT” (Tsinghua University, priority 2015, published 2025)
